Earlier results on one molecule are cited in US20140296155A1, “ANTI-STRETCH MARK SKIN CREAM AND METHOD FOR MAKING AND USING THEREOF” (priority 2011, published 2014).

This series deals with Type 1 and Type 3 collagen.

On to `O=C1O[C@H]([C@@H](O)CO)C(O)=C1O` [Vitamin C, Ascorbic Acid], for which the “collagen formation over control levels” value is listed as 3-4 fold.
